Assay results: patent US8663701B2, “Compositions containing ultra-micronized palmitoyl-ethanolamide” (priority 2009, dated 2014)
One block for each molecule: values may come before it.

Legend:
[1] = Concentration of PEA in serum after single oral administration; format: in vivo, Beagle dogs; conditions: 15 mg/Kg oral, fasting
[2] = system: 2-arachidonoylglycerol (2-AG); test: Concentration of 2-AG in serum after single oral administration of PEA; format: in vivo, Beagle dogs; conditions: for Concentration in serum, 2AG: 15 mg/Kg oral, fasting; for Increase of 2-AG in blood compared to the basal levels: administration per os
Description: Dose measurements in blood have been carried out of 2-arachidonoyl-glycerol (2-AG), an endocannabinoid of great importance in the modulation of the activation of cells capable of expressing the cannabinoid CB2 receptor; this is the case of many cells belonging to the immune system as the microglia.

[3] = system: TNF-alpha, NGF, NF-kB, IL-1 alpha; test: Sciatic nerve ligation (CCI), spinal parameters at day 10; format: in vivo, mouse; conditions: for IL-1alpha / NGF / TNF-alpha: spinal area, day 10 after ligation (CCI), per os once per day
Description: After sciatic nerve ligation—CCI (carried out as described by Costa et al., Pain 2008; 139:541-550), a series of altered spinal parameters have been assessed in the mouse, following peripheral damage, and related to the activation of microglial cells induced by the peripheral chronic distress. In particular, TNF-alpha, NGF, NF-kB according to the method described by Costa et al. (see supra), and IL-1 alpha according to the method described by Fiorentino et al., 2008; 58(10):3100-3109 have been measured.
A 0.5% solution in carboxymethyl cellulose has been used as a vehicle.
The measurements of the parameters indicated, above have been carried out at day 10 from the sciatic nerve ligation, after sacrifice of the test animal and sampling of the spinal area.

[4] = system: cutaneous reaction induced by Ascaris suum; test: Cutaneous reaction induced by Asc S1 antigen in dogs sensitized to Ascaris suum; format: in vivo, Beagle dog; conditions: for Inhibition on the cutaneous reaction induced by Ascaris suum: 10 mg/Kg oral; for Inhibition of the cutaneous reaction: between 1 and 4 hours after treatment
Method: Beagle dog spontaneously sensitized to Ascaris suum were used.
A 2% solution of Evans Blue in saline was administered endovenously (0.4 mL/Kg) 30 minutes before the intradermal injection of Asc S1 antigen, so as to be able to visualize the dermal reaction area.
The dermal reaction area was measured 10 minutes after the injection of Asc S1 antigen.

[5] = system: protein NGF, protein TNF-alpha; test: Carrageenan-induced granuloma; format: in vivo, rat; conditions: for Expression of protein NGF in the dorsal root ganglia / Expression of protein NGF in the granulomatous tissue / Expression of protein TNF-alpha in the dorsal root ganglia: 96 hours, 10 mg/Kg oral every 12 hours for 3 days
Method: The pharmacological model of granuloma induced, in the rat, by the introduction in the subcutaneous tissue of carrageenan-soaked sponge has been used. The model is described in De Filippis et al., J Cell Mol Med. 2009; 13(6):1086-1095.
The administrations were carried out at time 0 (immediately before the introduction of the sponges), and every 12 hours for 3 consecutive days. The unit doses administered were 10 mg/Kg.
The biochemical parameters relative to pro-algogenic mediators were detected, after sacrifice of the animal occurred after 96 hours from the introduction of the sponges, both in the granulomatous tissue (expression of the protein NGF), and at the level of the dorsal root ganglia (RDG) (expression of the protein TNF-alpha and the protein NGF).

[6] = system: TNF-alpha, tissue mast cells; test: LPS-induced acute intestinal inflammation; format: in vivo, mouse; conditions: 18 hours after LPS
Method: (§1) An acute inflammation was induced in the animal by means of intra-peritoneal injection of LPS (lipopolysaccharide): the animals were sacrificed after 18 hours from the LPS administration. Instead, a chronic inflammation at the colon level was induced by administering the animal with DNBS (2,4-Dinitrobenzene sulfonic acid): in this case, the animals were sacrificed after 96 hours from the DNBS administration.
(§2) The level of TNF-alpha and the percent variation in the number of mast cells were assessed on intestinal tissue.

[7] = system: TNF-alpha, tissue mast cells; test: DNBS-induced chronic intestinal inflammation; format: in vivo, mouse; conditions: 96 hours after DNBS
Method: as §1, §2

IL-1 beta, NO2 = test: Beta-amyloid-induced neuroinflammation; format: in vivo, C57BL/6 mice; conditions: for Effect on the levels of the biological parameters considered: IL-1 beta and NO2 in hippocampus; for Hippocampal levels of NO2 / Hippocampal tissue levels of IL-1 beta (with immunofluorescence method) (count of cells immunopositive to THE-1 beta): per os daily for 8 days after beta-amyloid inoculation
Method: C57BL/6 mice with age ranging between 3 and 5 months have been used, divided in 3 different groups (20 animals per group). […] The administrations were carried out daily for 8 days successive to the inoculation of the beta-amyloid. The third group was administered with the vehicle alone. After sacrifice of the animal, IL-1 beta and NO2 dose level was measured in the hippocampal homogenate via an immunofluorescence method.
The experimental method described by Esposito et al., Br J Pharmacol. 2007; 151:1272-1279 has been used.

[8] = system: neuropathic pain at the lower limbs; test: Neuropathic pain in Multiple Sclerosis patients, VAS scale; format: in vivo; conditions: for VAS after the treatment of 60 days (average value): tablets
Method: The pain intensity was measured with a VAS (Visual Analogue Scale) scale both before and at the end of the treatment with palmitoylethanolamide.

[9] = Particle size profile, laser particle size analyzer (LALLS); format: physicochemical; conditions: ultra-micronization
Description: In order to measure the particle size, a laser particle size analyzer (Malvern Mastersizer) with LALLS (Low Angle Laser Light Scattering) technique using the Fraunhofer theory of computation is employed.

[10] = Modulated Differential Scanning Calorimetry (MDSC); format: physicochemical; conditions: room temperature; from MDSC spectrum
Description: The MDSC technique is a known one, the principles and applications of which are described, for example, in S. R. Rabel et al., Journal of Pharmaceutical and Biomedical Analysis, 21 (1999) 339-345. The tests described in the present patent application have been carried out with an equipment TA DSC Q200.
Such differential calorimetry measurement performed with the MDSC technique have shown an outstanding difference between the initial product and the ultra-micronized product, which difference consists in the appearance, in the product subjected to ultra-micronization, of a positive peak of exothermal transition at a temperature between 101° C. and 103° C., which is distinctive of structures with a high energy content; in the original product, such peak results, on the contrary, to be negative (see FIGS. 3 and 4). The positive exothermal transition peak has to be interpreted as the signal of the heat developed by the transformation of the higher energy content form (formed during the ultra-micronization process) into the native crystalline form with lower energy content.
The net energy transition which characterizes the positive peak at 101-103° C. of FIG. 4 is symptomatic of such stability. Differently, progressive transitions at lower temperatures should have to be noticed.

[11] = Time 0 (immediately before administration)
[12] = Time 0 hours (before administration)
[13] = listed as micronized PEA, 10 mg/kg
[14] = vehicle 100, listed as Micronized PEA
[15] = listed as ultra-micronized PEA, 10 mg/kg
[16] = vehicle 100, listed as Ultra-micronized PEA

- concentration at 0 h ([1]; Beagle, dog, serum, po, 15 mg/kg, Time 0 (immediately before administration)): 12.4 nM
- concentration at 1 h ([1]; Beagle, dog, serum, po, 15 mg/kg, Time 1 h): 22.2 nM
- concentration at 2 h ([1]; Beagle, dog, serum, po, 15 mg/kg, Time 2 h): 15.6 nM
- concentration at 3 h ([1]; Beagle, dog, serum, po, 15 mg/kg, Time 3 h): 13.4 nM
Compound: CCCCCCCCCCCCCCCC(=O)NCCO [Micronized palmitoylethanolamide, palmitoylethanolamide, reference compound]
- Concentration in serum, 2AG [2, 11]: 1.0 pmol/mL
- Concentration in serum, 2AG ([2]; Time 1 h, 15 mg/kg): 1.2 pmol/mL
- Concentration in serum, 2AG ([2]; Time 2 h, 15 mg/kg): 1.6 pmol/mL
- Concentration in serum, 2AG ([2]; Time 3 h, 15 mg/kg): 1.7 pmol/mL
- Increase of 2-AG in blood compared to the basal levels [2]: about 70%
- IL-1alpha ([3]; listed as micronized PEA): 25.80 ± 2.0 pg/mg prot
- NGF ([3]; listed as micronized PEA): 38.6 ± 3.0 pg/mg prot
- TNF-alpha ([3]; listed as micronized PEA): 60.4 ± 3.0 pg/mg prot
- Inhibition on the cutaneous reaction induced by Ascaris suum [4, 12]: 0%
- Inhibition on the cutaneous reaction induced by Ascaris suum ([4]; Time 1 hours, 10 mg/kg): 9.4 ± 2.6%
- Inhibition on the cutaneous reaction induced by Ascaris suum ([4]; Time 2 hours, 10 mg/kg): 9.3 ± 4.7%
- Inhibition on the cutaneous reaction induced by Ascaris suum ([4]; Time 4 hours, 10 mg/kg): −2.6 ± 4.2%
- Inhibition on the cutaneous reaction induced by Ascaris suum ([4]; Time 8 hours, 10 mg/kg): −0.8 ± 2.0%
- Inhibition on the cutaneous reaction induced by Ascaris suum ([4]; Time 24 hours, 10 mg/kg): −0.2 ± 2.0%
- Inhibition of the cutaneous reaction ([4]; listed as micronized PEA): almost null
- Expression of protein NGF in the dorsal root ganglia [5, 13]: 50.8 ± 3.0 OD = mm^2
- Expression of protein NGF in the granulomatous tissue [5, 13]: 14.6 ± 2.1 OD = mm^2
- Expression of protein TNF-alpha in the dorsal root ganglia [5, 13]: 151.1 ± 9.6 OD = mm^2
- Expression of protein TNF-alpha ([6]; listed as Micronized PEA): 128.3 ± 10.8 OD = mm^2
- Number of tissue mast cells, percent of vehicle [6, 14]: 86%
- Expression of protein TNF-alpha ([7]; listed as Micronized PEA): 134.8 ± 8.4 OD = mm^2
- Tissue mast cell number, percent of vehicle [7, 14]: 74%
- Effect on the levels of the biological parameters considered (IL-1 beta, NO2; listed as micronized PEA): only a marginal activity
- Hippocampal levels of NO2 (IL-1 beta, NO2; listed as micronized PEA): 8.2 ± 2.1 μM/μg of proteins from hippocampal homogeneate
- Hippocampal tissue levels of IL-1 beta (with immunofluorescence method) (count of cells immunopositive to THE-1 beta) (IL-1 beta, NO2; listed as micronized PEA): 86.3 ± 7.9
- VAS after the treatment of 60 days (average value) ([8]; 600 mg per day for 60 days): 4.22
- VAS before the treatment (average value) [8]: 6.52

- Particle size <0.6 microns [9]: 2.0%
- Particle size <1 microns [9]: 14.7%
- Particle size <2 microns [9]: 59.6%
- Particle size <6 microns [9]: 99.9%
- Particle size <10 microns [9]: 100%
- Particle size >14 microns [9]: Absent
- Stability of the high energy crystalline form [10]: substantially stable at room temperature
- Concentration in serum, PEA [1, 11]: 12.4 nM
- Concentration in serum, PEA ([1]; Time 1 h, 15 mg/kg): 22.4 nM
- Concentration in serum, PEA ([1]; Time 2 h, 15 mg/kg): 16.2 nM
- Concentration in serum, PEA ([1]; Time 3 h, 15 mg/kg): 14.1 nM
Compound: CCCCCCCCCCCCCCCC(=O)NCCO [Ultra-micronized palmitoylethanolamide, palmitoylethanolamide]
- Concentration in serum, 2AG [2, 11]: 1.0 pmol/mL
- Concentration in serum, 2AG ([2]; Time 1 h, 15 mg/kg): 3.6 pmol/mL
- Concentration in serum, 2AG ([2]; Time 2 h, 15 mg/kg): 4.2 pmol/mL
- Concentration in serum, 2AG ([2]; Time 3 h, 15 mg/kg): 4.7 pmol/mL
- Increase of 2-AG in blood compared to the basal levels [2]: higher than 400%
- Effect on all the biochemical parameters under investigation ([3]; CCI, day 10): substantial normalization
- IL-1alpha ([3]; listed as ultra-micronized PEA): 2.50 ± 0.02 pg/mg prot
- NGF ([3]; listed as ultra-micronized PEA): 10.2 ± 2.0 pg/mg prot
- TNF-alpha ([3]; listed as ultra-micronized PEA): 44.1 ± 2.8 pg/mg prot
- Inhibition on the cutaneous reaction induced by Ascaris suum [4, 12]: 0%
- Inhibition on the cutaneous reaction induced by Ascaris suum ([4]; Time 1 hours, 10 mg/kg): 20.8 ± 5.4%
- Inhibition on the cutaneous reaction induced by Ascaris suum ([4]; Time 2 hours, 10 mg/kg): 32.4 ± 4.7%
- Inhibition on the cutaneous reaction induced by Ascaris suum ([4]; Time 4 hours, 10 mg/kg): 26.0 ± 4.9%
- Inhibition on the cutaneous reaction induced by Ascaris suum ([4]; Time 8 hours, 10 mg/kg): 15.1 ± 9.6%
- Inhibition on the cutaneous reaction induced by Ascaris suum ([4]; Time 24 hours, 10 mg/kg): 4.5 ± 6.7%
- Inhibition of the cutaneous reaction ([4]; listed as ultra-micronized PEA): above 20%
- Expression of protein NGF in the dorsal root ganglia [5]: 43.8 ± 3.1 OD = mm^2
- Expression of protein NGF in the granulomatous tissue [5, 15]: 6.1 ± 1.6 OD = mm^2
- Expression of protein TNF-alpha in the dorsal root ganglia [5, 15]: 96.6 ± 10.4 OD = mm^2
- Decrease of NGF levels ([5]; compared to the micronized PEA): much more marked decrease
- Expression of protein TNF-alpha ([6]; listed as Ultra-micronized PEA): 75.6 ± 12.3 OD = mm^2
- Number of tissue mast cells, percent of vehicle [6, 16]: 41%
- Expression of protein TNF-alpha ([7]; listed as Ultra-micronized PEA): 62.9 ± 11.8 OD = mm^2
- Tissue mast cell number, percent of vehicle [7, 16]: 26%
- Effect on the levels of the biological parameters considered (IL-1 beta, NO2; listed as ultra-micronized PEA): high decrease
- Hippocampal levels of NO2 (IL-1 beta, NO2; listed as ultra-micronized PEA): 3.1 ± 0.6 μM/μg of proteins from hippocampal homogeneate
- Hippocampal tissue levels of IL-1 beta (with immunofluorescence method) (count of cells immunopositive to THE-1 beta) (IL-1 beta, NO2; listed as ultra-micronized PEA): 21.8 ± 5.4
- VAS after the treatment of 60 days (average value) ([8]; 600 mg per day for 60 days): 2.85
- Effect on pain (VAS) ([8]; 600 mg per day for 60 days, Wilcoxon p=0.001): marked decrease of the pain
- VAS before the treatment (average value) [8]: 6.52
